Laboratory results from ChEMBL document CHEMBL1201862, “PubChem BioAssay data set” (2004).
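Cultured in 96-well plates, cells were exposed to test compound for 48 hours across five concentrations. GI50 is the concentration that inhibits growth by half.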 Calls of active or inactive are those of the source. No stated cut-off is given here; in the data, active = GI50 up to about 1.1 µM and inactive = higher.

What was measured:
Test in all cases: growth of human tumour cells (NCI), 48 h
UACC-257 = tested on: UACC-257
HT-29 = tested on: HT-29
A549 = tested on: A549
RPMI-8226 = tested on: RPMI-8226
SNB-75 = tested on: SNB-75
NCI-H460 = tested on: NCI-H460
LOX IMVI = tested on: LOX IMVI
UO-31 = tested on: UO-31
HL-60 = tested on: HL-60
NCI-H522 = tested on: NCI-H522
UACC-62 = tested on: UACC-62
OVCAR-4 = tested on: OVCAR-4
HOP-92 = tested on: HOP-92
U-251 = tested on: U-251
HCT-116 = tested on: HCT-116
SR = tested on: SR

Row | Compound | GI50 (UACC-257) | GI50 (HT-29) | GI50 (A549) | GI50 (RPMI-8226) | GI50 (SNB-75) | GI50 (NCI-H460) | GI50 (LOX IMVI) | GI50 (UO-31) | GI50 (HL-60) | GI50 (NCI-H522) | GI50 (UACC-62) | GI50 (OVCAR-4) | GI50 (HOP-92) | GI50 (U-251) | GI50 (HCT-116) | GI50 (SR)
1 | O=c1[nH]c(Br)nc2c(Br)c[nH]c12 | > 100 µM (inactive) | > 100 µM (inactive) | > 100 µM (inactive) | > 100 µM (inactive) | > 100 µM (inactive) | > 100 µM (inactive) | > 100 µM (inactive) | > 100 µM (inactive) | > 100 µM (inactive) | 31.3 µM (inactive) | > 100 µM (inactive) | > 100 µM (inactive) | > 100 µM (inactive) | > 100 µM (inactive) | > 100 µM (inactive) | –
2 | N#Cc1cc(NC(=O)c2ccccc2)c(=O)n2c1[nH]c1ccccc12 | 33 µM (inactive) | 48.5 µM (inactive) | 24.5 µM (inactive) | 11.7 µM (inactive) | 25.9 µM (inactive) | 33 µM (inactive) | – | 18.3 µM (inactive) | 26.4 µM (inactive) | 11 µM (inactive) | 17.4 µM (inactive) | 27 µM (inactive) | – | 26.9 µM (inactive) | 21.4 µM (inactive) | –
3 | Cc1nc(-n2nc(-c3ccccc3)cc2-c2ccccc2)sc1C(=O)CC(=O)C(=O)Nc1ccc(O)cc1 | > 100 µM (inactive) | > 100 µM (inactive) | > 100 µM (inactive) | > 100 µM (inactive) | > 100 µM (inactive) | – | > 100 µM (inactive) | > 100 µM (inactive) | > 100 µM (inactive) | > 100 µM (inactive) | > 100 µM (inactive) | > 100 µM (inactive) | – | > 100 µM (inactive) | > 100 µM (inactive) | > 100 µM (inactive)
4 | CCS(CC)(CC)CC1CCCC2=CCC(P(=O)(c3ccccc3)c3ccccc3)CC21 (centres undefined) | > 10 µM (inactive) | 9.12 µM (inactive) | 4.89 µM (inactive) | – | 11 µM (inactive) | 10.3 µM (inactive) | 14.7 µM (inactive) | 6.32 µM (inactive) | 3.31 µM (inactive) | 11 µM (inactive) | 3.01 µM (inactive) | 10.1 µM (inactive) | 2.5 µM (inactive) | 10.2 µM (inactive) | 7.36 µM (inactive) | 6.27 µM (inactive)
5 | Cc1ccc(S(=O)(=O)Nc2ccccc2C(C)(C)C)cc1 | 16.1 µM (inactive) | 16.2 µM (inactive) | 27.7 µM (inactive) | 18.7 µM (inactive) | 35.9 µM (inactive) | 18.6 µM (inactive) | – | 18.6 µM (inactive) | 16.8 µM (inactive) | – | 16.1 µM (inactive) | 25.6 µM (inactive) | – | 20.6 µM (inactive) | 15.2 µM (inactive) | –
6 | CC1(C)CC(=O)C=C(NC(=O)c2ccccc2)C1 | > 100 µM (inactive) | > 100 µM (inactive) | > 100 µM (inactive) | > 100 µM (inactive) | > 100 µM (inactive) | > 100 µM (inactive) | > 100 µM (inactive) | > 100 µM (inactive) | > 100 µM (inactive) | > 100 µM (inactive) | > 100 µM (inactive) | > 100 µM (inactive) | > 100 µM (inactive) | > 100 µM (inactive) | > 100 µM (inactive) | –
7 | O=C1OC(c2ccccc2)=N/C1=C/NC(CO)C(=O)O (centres undefined) | > 100 µM (inactive) | > 100 µM (inactive) | > 100 µM (inactive) | > 100 µM (inactive) | > 100 µM (inactive) | > 100 µM (inactive) | > 100 µM (inactive) | > 100 µM (inactive) | > 100 µM (inactive) | > 100 µM (inactive) | > 100 µM (inactive) | > 100 µM (inactive) | > 100 µM (inactive) | > 100 µM (inactive) | > 100 µM (inactive) | –
8 | COc1ccc(C[C@H](N)C(=O)NC2C(CO)OC(n3cnc4c(N(C)C)ncnc43)C2O)cc1 (some centres undefined) | 0.358 µM (active) | 0.262 µM (active) | 0.492 µM (active) | 0.22 µM (active) | 0.0807 µM (active) | 0.255 µM (active) | 0.112 µM (active) | 2.68 µM (inactive) | 0.141 µM (active) | – | 0.152 µM (active) | 0.389 µM (active) | 0.196 µM (active) | 0.0297 µM (active) | 0.115 µM (active) | 0.138 µM (active)
9 | O=C1OC(=O)C2C1C1(c3ccccc3)OC2(c2ccccc2)c2c(Br)c(Br)c(Br)c(Br)c21 (centres undefined) | > 100 µM (inactive) | > 100 µM (inactive) | > 100 µM (inactive) | > 100 µM (inactive) | > 100 µM (inactive) | > 100 µM (inactive) | > 100 µM (inactive) | > 100 µM (inactive) | > 100 µM (inactive) | > 100 µM (inactive) | > 100 µM (inactive) | > 100 µM (inactive) | > 100 µM (inactive) | > 100 µM (inactive) | > 100 µM (inactive) | –
10 | Oc1ccc([Te]CCNCC[Te]c2ccc(O)cc2)cc1 | 36 µM (inactive) | 15.6 µM (inactive) | 3.66 µM (inactive) | 16.4 µM (inactive) | 6.55 µM (inactive) | 4.67 µM (inactive) | 12.5 µM (inactive) | 9.2 µM (inactive) | 5.55 µM (inactive) | – | 17 µM (inactive) | – | – | 6.22 µM (inactive) | 5.96 µM (inactive) | 5.19 µM (inactive)
11 | O=[N+]([O-])c1ccc(C[P+](c2ccccc2)(c2ccccc2)c2ccccc2)cc1 | 16.1 µM (inactive) | 32.9 µM (inactive) | > 100 µM (inactive) | 26.2 µM (inactive) | 35.9 µM (inactive) | 71.3 µM (inactive) | 42 µM (inactive) | > 100 µM (inactive) | 27.2 µM (inactive) | 32.7 µM (inactive) | 32.1 µM (inactive) | – | – | 31.7 µM (inactive) | 36.5 µM (inactive) | 38.4 µM (inactive)
12 | O=C1c2ccccc2C(=O)c2c(O)c(NCCNCCO)cc(O)c21 | 6.59 µM (inactive) | 3.23 µM (inactive) | 3.55 µM (inactive) | 3.88 µM (inactive) | 4.52 µM (inactive) | 3.34 µM (inactive) | 3.73 µM (inactive) | 2.96 µM (inactive) | 4.69 µM (inactive) | – | 11.5 µM (inactive) | 2.99 µM (inactive) | 11.1 µM (inactive) | – | 2.3 µM (inactive) | 2.2 µM (inactive)
13 | Clc1ccc2nc(-c3ccccc3)nc(Cl)c2c1 | 45 µM (inactive) | > 100 µM (inactive) | 50.6 µM (inactive) | > 100 µM (inactive) | 22.1 µM (inactive) | 87.9 µM (inactive) | – | > 100 µM (inactive) | 12.5 µM (inactive) | – | 49.8 µM (inactive) | – | 25.4 µM (inactive) | 68.1 µM (inactive) | 73.6 µM (inactive) | > 100 µM (inactive)
14 | Nc1cc(=O)n(-c2ccccc2)c(=S)n1-c1ccccc1 | > 100 µM (inactive) | > 100 µM (inactive) | > 100 µM (inactive) | > 100 µM (inactive) | > 100 µM (inactive) | > 100 µM (inactive) | > 100 µM (inactive) | > 100 µM (inactive) | – | > 100 µM (inactive) | > 100 µM (inactive) | – | – | > 100 µM (inactive) | > 100 µM (inactive) | –
15 | COc1ccc2nccc(C3=CCC4CCN(C(=O)c5ccccc5)C3C4)c2c1 (centres undefined) | > 100 µM (inactive) | > 100 µM (inactive) | > 100 µM (inactive) | 46.1 µM (inactive) | 93.5 µM (inactive) | > 100 µM (inactive) | > 100 µM (inactive) | 40.7 µM (inactive) | 51.6 µM (inactive) | > 100 µM (inactive) | > 100 µM (inactive) | 81.8 µM (inactive) | > 100 µM (inactive) | > 100 µM (inactive) | > 100 µM (inactive) | –
16 | CC(=O)O/N=C(/C)c1ccccc1O | > 100 µM (inactive) | > 100 µM (inactive) | > 100 µM (inactive) | > 100 µM (inactive) | > 100 µM (inactive) | > 100 µM (inactive) | > 100 µM (inactive) | > 100 µM (inactive) | > 100 µM (inactive) | > 100 µM (inactive) | > 100 µM (inactive) | > 100 µM (inactive) | – | > 100 µM (inactive) | > 100 µM (inactive) | –
17 | COc1ccc2[nH]c3c(c2c1)CCN(C)CC3 | > 100 µM (inactive) | > 100 µM (inactive) | > 100 µM (inactive) | > 100 µM (inactive) | > 100 µM (inactive) | > 100 µM (inactive) | > 100 µM (inactive) | – | 71.8 µM (inactive) | – | > 100 µM (inactive) | 45.3 µM (inactive) | > 100 µM (inactive) | > 100 µM (inactive) | > 100 µM (inactive) | –
18 | COc1ccc2cccc(C(=N)c3ccc(C)c4c3CCC4)c2c1 | 4.89 µM (inactive) | 4.02 µM (inactive) | 13.7 µM (inactive) | – | 11.8 µM (inactive) | 4.3 µM (inactive) | 11.7 µM (inactive) | 4.45 µM (inactive) | 2.67 µM (inactive) | 3.72 µM (inactive) | 4.18 µM (inactive) | 12.2 µM (inactive) | – | 9.57 µM (inactive) | 4.59 µM (inactive) | 2.62 µM (inactive)
19 | Cc1ccc(-n2c3nc(=O)n(C)c(=O)c-3nc3ccccc32)cc1 | 12.8 µM (inactive) | 3.54 µM (inactive) | 6.43 µM (inactive) | 12.5 µM (inactive) | 10.9 µM (inactive) | 3.33 µM (inactive) | 20.4 µM (inactive) | 40.2 µM (inactive) | 11.1 µM (inactive) | 12.6 µM (inactive) | 2.3 µM (inactive) | 14.5 µM (inactive) | – | 15.1 µM (inactive) | 19.1 µM (inactive) | –
20 | Nc1nc(OCc2ccccc2)c2nc[nH]c2n1 [6-O-BENZYLGUANINE] | 91 µM (inactive) | 87.3 µM (inactive) | 73.8 µM (inactive) | – | 24.8 µM (inactive) | 67.6 µM (inactive) | 64.6 µM (inactive) | 25.9 µM (inactive) | 45.7 µM (inactive) | 49.4 µM (inactive) | 44.2 µM (inactive) | 69.8 µM (inactive) | 64.4 µM (inactive) | 87.7 µM (inactive) | 59.6 µM (inactive) | –
